Among the data in PubChem BioAssay (NCI) are GI50 and TGI values, retold here.

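In this assay, cells in 96-well plates receive the compound at five concentrations for 48 hours. Endpoints are linearly interpolated between the surrounding concentrations. Here, GI50 denotes the concentration required for 50% inhibition of growth. TGI: total growth inhibition.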

What all share (experiment): DTP human tumour cell line panel, 48 h
The test system of experiment [1] is T-47D breast.
Experiment [2] deals with BT-549 breast.
In experiment [3] the test system is MCF7 breast.
Experiment [4] has as its system MDA-MB-435.

`O=C(NN1C(=O)CSC12CCCC2)C(O)c1ccccc1` (centres undefined): the GI50 in experiment [1], in experiment [2], in experiment [3] and in experiment [4] was more than 100 µM throughout. Also, the TGI in experiment [1], in experiment [2], in experiment [3] and in experiment [4] was more than 100 µM in each case.

On to `COc1cc2ncn(-c3cc(OCc4ccccc4C(F)(F)F)c(C(C)=O)s3)c2cc1OC`, for which the GI50 in experiment [1] is more than 25 µM; in experiment [2], more than 25 µM; in experiment [3], more than 25 µM; in experiment [4], 17.6 µM. Moreover, the TGI in experiment [1], in experiment [2], in experiment [3] and in experiment [4] was more than 25 µM each time.

With `Cc1nnc(-c2ccc(C)c(-c3ccc(C(=O)NCc4ccc(Cl)cc4)cc3)c2)o1`, the GI50 in experiment [1] is 4.13 µM; in experiment [2], 14.7 µM; in experiment [3], 7.37 µM; in experiment [4], 7.15 µM. In addition, the TGI is more than 19.2 µM in experiment [1], more than 25 µM in experiment [2], more than 19 µM in experiment [3] and more than 25 µM in experiment [4].

As to `C=C1C(=O)OC2CC3(C)CCCC(C)C3=CC12` (centres undefined), the concentration for total growth inhibition (TGI) stood at 11 µM in experiment [1], 18.5 µM in experiment [2], 5.28 µM in experiment [3] and 14.1 µM in experiment [4].

Consider `CC(O[Si](c1ccccc1)(c1ccccc1)C(C)(C)C)[C@H](NC(=O)OC(C)(C)C)C(=O)O` (some centres undefined), for which the TGI in experiment [1] and in experiment [3] was more than 100 µM in each case.

For `COc1ccc(CNc2cnc3cc(N)cc(N)c3n2)cc1`, the GI50 in experiment [1] was 73.8 µM; in experiment [2], 17.8 µM; in experiment [3], 37.5 µM; in experiment [4] it was 21.7 µM. For the same compound, the TGI in experiment [1] was more than 100 µM; in experiment [2], 37.5 µM; in experiment [3], more than 100 µM; in experiment [4] it was 39 µM.

`CC(C)(C)NC/C(=C\c1ccccc1)C(=O)c1ccccc1`: the GI50 was 2.19 µM in experiment [1], 2.03 µM in experiment [2], 1.08 µM in experiment [3] and 2.51 µM in experiment [4]. Besides, the TGI amounted to 8.98 µM in experiment [1], 4.39 µM in experiment [2], 10.4 µM in experiment [3] and 12.8 µM in experiment [4].

As for `O=C(Nc1cccc(Cl)c1)c1cc(N=Nc2ccc([N+](=O)[O-])cc2Cl)ccc1O`, the GI50 was 1.62 µM in experiment [1], 2.35 µM in experiment [2], 2.03 µM in experiment [3] and 2.34 µM in experiment [4]. Further, the TGI came out at 5.57 µM in experiment [1], 7.31 µM in experiment [2], 5.79 µM in experiment [3] and 5.96 µM in experiment [4].

With `Cc1cc(NNC(=O)c2ccccc2O)nc(Nc2nc3ccccc3o2)n1`, the GI50 in experiment [1] is 2.92 µM; in experiment [2], 4.52 µM; in experiment [3], 1.88 µM; in experiment [4] it was 3.02 µM. For the same compound, the TGI in experiment [1] worked out at 21.5 µM; in experiment [2], 28.2 µM; in experiment [3], 20.7 µM; in experiment [4], 17.8 µM.

Turning to `C=C1CCC2C3(C)COC(c4ccc(Cl)cc4)OC3CCC2(C)C1/C=C/C1=CCOC1=O` (centres undefined), the GI50 in experiment [1] is 0.821 µM; in experiment [2], 4.79 µM; in experiment [3] it was 3.35 µM; in experiment [4], 4.19 µM. The TGI in experiment [1] is 21.4 µM; in experiment [2] it was 80.5 µM; in experiment [3], more than 100 µM; in experiment [4], more than 100 µM.

For `C1CCN2CC3CCCN4CCCC(C2C1)C34` (centres undefined), the TGI in experiment [1], in experiment [2], in experiment [3] and in experiment [4] was more than 100 µM in each case.

As for `CSc1ccc(C2=NN(C(C)=O)C(c3ccc(F)cc3)C2)cc1` (centres undefined), the GI50 is 11.5 µM in experiment [1], 20.3 µM in experiment [2], 17.2 µM in experiment [3] and 15 µM in experiment [4]. For the same compound, the TGI is 41.4 µM in experiment [1], 40.2 µM in experiment [2], 41.3 µM in experiment [3] and 32.4 µM in experiment [4].

Turning to `NNC(=S)Nc1cccc(Cl)c1`, the TGI in experiment [1], in experiment [2], in experiment [3] and in experiment [4] was more than 100 µM in each case.

Turning to `COC(=O)c1ccc2c(c1)c1c(C)c3ccncc3c(C)c1n2C`, the GI50 in experiment [1] is 0.661 µM; in experiment [2], 0.925 µM; in experiment [3], 0.267 µM; in experiment [4], 0.437 µM. The TGI was more than 100 µM in experiment [1], 36.2 µM in experiment [2], 1.77 µM in experiment [3] and 22.9 µM in experiment [4].

For `COc1ccc2c(c1)N(CCO)C1=C(C(=O)OC1)C2c1ccccc1` (centres undefined), in experiment [2], the GI50 was 4.03 µM and the concentration for total growth inhibition (TGI) was more than 50 µM. In experiment [3], the GI50 was 1.86 µM and the TGI is more than 50 µM.

`COc1cc(-c2ccc(NC(=O)NC3CC3)c(OC)c2)ccc1NC(=O)NC1CC1`: the GI50 is more than 100 µM in experiment [1], 2.67 µM in experiment [2], 5.69 µM in experiment [3] and 9.18 µM in experiment [4]. Further, the TGI in experiment [1] was more than 100 µM; in experiment [2], 27.2 µM; in experiment [3] it was more than 100 µM; in experiment [4] it was more than 100 µM.

As for `CC(O)CN1c2ccccc2Sc2ccc(Cl)cc21` (centres undefined), the TGI in experiment [1], in experiment [2], in experiment [3] and in experiment [4] was more than 10 µM throughout.

For `CCCN1C(=O)/C(=C/c2ccc(O)cc2)SC1=Nc1ccc(OC)cc1`, the GI50 in experiment [2] was 15.3 µM; in experiment [3] it was 23.2 µM; in experiment [4], 14.9 µM. Further, the TGI in experiment [2] turned out to be 34.9 µM; in experiment [3], 94.2 µM; in experiment [4], 31.2 µM.

Take `COC(=O)C(=O)C(C(=O)C(=O)Nc1ccc(C)cc1)c1nc2ccc(C(=O)c3ccccc3)cc2[nH]c1=O` (centres undefined): the TGI in experiment [1], in experiment [2] and in experiment [4] was more than 100 µM each time.
